Experimental data published in US8133864B2, “PAR-2 agonist” (Kowa Company, Ltd., priority 2005, dated 2012).
Where a name gives a salt, the structure may show the parent alone.

Columns and labels:
PAR-2 [1] = target: T1, PAR-2 (Homo sapiens, UniProt P55085); experiment: PAR-2 agonist-mediated intracellular calcium dynamics assay in HCT-15 cells (modified method of Howthorne et al.); assay type: cell-based; set-up: HCT-15 cells, human colorectal cancer cell lines endogenously expressing high level of PAR-2; endogenous in cells; host or cells: HCT-15 human colorectal cancer cells; conditions: for EC50: HCT-15 cells endogenously expressing PAR-2, Ca2+ sensitive fluorescent dye, 2.5 mM probenecid, serum-free RPMI
T1 sequence (P55085 26-397): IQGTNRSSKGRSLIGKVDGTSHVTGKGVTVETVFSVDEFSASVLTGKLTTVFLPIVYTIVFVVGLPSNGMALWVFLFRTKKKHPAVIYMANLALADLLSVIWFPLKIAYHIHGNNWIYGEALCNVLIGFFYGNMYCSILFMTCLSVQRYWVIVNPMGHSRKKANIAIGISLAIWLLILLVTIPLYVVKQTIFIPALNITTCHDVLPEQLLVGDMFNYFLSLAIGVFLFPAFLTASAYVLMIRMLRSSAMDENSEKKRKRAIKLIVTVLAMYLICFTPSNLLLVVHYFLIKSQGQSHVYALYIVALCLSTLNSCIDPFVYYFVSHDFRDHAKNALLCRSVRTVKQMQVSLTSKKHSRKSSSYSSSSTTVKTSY
Description: The PAR-2 activation of peptide derivatives represented by the general formula (1) can be tested by various known methods. For example, the method of Hollenberg (Hollenberg, M.D., et al., Can. J. Physiol. Pharmacol., 75, 832-841(1997)), the method of Kawabata et al. (Kawabata, A., et al., J. Pharmacol. Exp. Ther., 288, 358-370(1999)), the method of Howthorne et al. (Howthorne et al., A High-Throughput Microtiter Plate-Based Calcium Assay for the Study of Protease-Activated Receptor 2 Activation, Analytical Biochemistry 290, 378-379(2001)), and the like can be used. The present inventors tested PAR-2 activation potency by using the modified method of Howthorne et al. More specifically the method is for assaying calcium dynamics in a cell expressing human PAR-2 intracellularly. In this assay, PAR-2 agonist mediated calcium dynamics (concentration variability) in a cell is measured by using a multiple-well plate reader wherein the cell has Ca^2+ sensitive fluorescent dye introduced and stimulated by PAR-2 agonist under probenecid, which inhibits anion-exchange transporter, present. HCT-15 cells, human colorectal cancer cell lines endogenously expressing high level of PAR-2, were plated in a black-wall clear-bottom 96 well plate. Subconfluent cells were labeled with Ca^2+ sensitive fluorescent dye (Calcium Assay Reagent, Molecular Devices) in a RPMI culture medium in the presence of 2.5 mM probenecid absence of serum, and incubated for 1 hour at 37 ° C. Thereafter, the cells were stimulated with test compounds at various concentrations, and fluorescence change was measured using a scanning fluorometer (Flex Station, Molecular Devices) using excitation wavelength of 485 nm and fluorescence wavelength of 525 nm (cut-off wavelength of 515 nm). As a comparative compound, SLIGKV(SEQ ID: NO 1) —OH which is known as PAR-2 activated peptide was used. The results are shown in TAB.1.

PAR-2 [2] = target: T1, PAR-2; conditions: relative to TRAP (tethered receptor agonist peptide); cited from earlier work

agonist activity against PAR-2 (result in words; comparator not given, presumably the comparison compound) (PAR-2 [1]; HCT-15 cells, calcium assay)	Compound	EC50 (PAR-2 [1])	intensity to activate PAR-2 relative to TRAP (PAR-2 [2])
higher agonist activity	O=C(CNC(=O)[C@H](CC1CCCCC1)NC(=O)c1ccco1)NCC(=O)N[C@@H](CCCN1CCCCC1)C(=O)NCc1ccccc1 [Example 1, (S)-2-[(2-furoyl)-β-cyclohexyl-L-alanyl-glycyl-glycyl-amino]-5-(1-piperidinyl)pentanoic acid benzyl amide]	2.3 ± 0.3 µM	–
–	Nα-benzoyl-Arg (NO2)-Leu-NH2	–	about 1/100
–	O=C(CNC(=O)[C@H](CC1CCCCC1)NC(=O)c1ccco1)NCC(=O)N[C@@H](CCCN1CCCCC1)C(=O)NCCN1CCCCC1 [Example 2, (S)-2-[(2-furoyl)-β-cyclohexyl-L-alanyl-glycyl-glycyl-amino]-5-(1-piperidinyl)pentanoic acid N-[2-(1-piperidinyl)ethyl] amide dihydrochloride]	4.1 ± 0.4 µM	–
